Assay results reported in patent US20090018116A1, “Therapeutic Compounds” (ASTRAZENECA AB, priority 2004, published 2009).

How the values were obtained:
Human CB1 receptor [1] = target: T1, Human CB1 receptor (Homo sapiens, UniProt P21554); test: hCB1 GTPγS binding; format: biochemical; conditions: hCB1 membranes, GTPg35S binding; for Emax: maximal stimulation with 10 μM Win 55,212-2
T1 construct: purchased Receptor Biology
Description: Human CB1 receptor from Receptor Biology (hCB1) or human CB2 receptor membranes (BioSignal) are thawed at 37° C., passed 3 times through a 25-gauge blunt-end needle and diluted in the GTPγS binding buffer (50 mM Hepes, 20 mM NaOH, 100 mM NaCl, 1 mM EDTA, 5 mM MgCl2, pH 7.4, 0.1% BSA). […] The basal and maximal stimulated binding is determined in absence and presence of 1 μM (hCB2) or 10 μM (hCB1) Win 55,212-2 respectively. The membranes are pre-incubated for 5 minutes with 56.25 μM (hCB2) or 112.5 μM (hCB1) GDP prior to distribution in plates (15 μM (hCB2) or 30 μM (hCB1) GDP final). The plates are vortexed and incubated for 60 minutes at room temperature, filtered on Unifilters GF/B (presoaked in water) with the Tomtec or Packard harvester using 3 ml of wash buffer (50 mM Tris, 5 mM MgCl2, 50 mM NaCl, pH 7.0). The filters are dried for 1 hour at 55° C. The radioactivity (cpm) is counted in a TopCount (Packard) after adding 65 μl/well of MS-20 scintillation liquid. Antagonist reversal studies are done in the same way except that (a) an agonist dose-response curve is done in the presence of a constant concentration of antagonist, or (b) an antagonist dose-response curve is done in the presence of a constant concentration of agonist.

Human CB1 receptor [2] = target: T1, Human CB1 receptor; test: hCB1 receptor binding (3H-CP55,940 displacement); conditions: hCB1 membranes, Ki=IC50/(1+[rad]/Kd)
Description: The total and non-specific binding are determined in the absence and presence of 0.2 μM of HU210 respectively. The plates are vortexed and incubated for 60 minutes at room temperature, filtered through Unifilters GF/B (presoaked in 0.1% polyethyleneimine) with the Tomtec or Packard harvester using 3 mL of wash buffer (50 mM Tris, 5 mM MgCl2, 0.5 mg BSA pH 7.0). The filters are dried for 1 hour at 55° C. The radioactivity (cpm) is counted in a TopCount (Packard) after adding 65 μl/well of MS-20 scintillation liquid.
Based on the above assays, the dissociation constant (Ki) for a particular compound of the invention towards a particular receptor is determined using the following equation:
[rad] is a standard or reference radioactive ligand concentration at that moment; and
Kd is the dissociation constant of the radioactive ligand towards the particular receptor.

T1 sequence (P21554 whole entry): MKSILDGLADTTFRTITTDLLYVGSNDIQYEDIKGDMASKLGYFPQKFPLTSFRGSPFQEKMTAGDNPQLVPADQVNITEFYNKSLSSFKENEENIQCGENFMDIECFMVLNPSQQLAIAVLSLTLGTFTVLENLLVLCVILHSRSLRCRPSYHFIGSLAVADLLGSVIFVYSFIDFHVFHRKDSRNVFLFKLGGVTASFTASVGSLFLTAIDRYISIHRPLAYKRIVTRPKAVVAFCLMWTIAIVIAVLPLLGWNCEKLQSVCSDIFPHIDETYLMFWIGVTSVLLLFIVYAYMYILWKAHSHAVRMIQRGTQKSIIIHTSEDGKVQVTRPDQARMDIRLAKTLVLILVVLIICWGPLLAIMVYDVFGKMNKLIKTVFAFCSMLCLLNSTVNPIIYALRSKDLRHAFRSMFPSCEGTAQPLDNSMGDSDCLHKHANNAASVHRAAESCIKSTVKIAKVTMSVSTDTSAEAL

Compound	EC50 (Human CB1 receptor [1])	Emax (Human CB1 receptor [1])	Ki (Human CB1 receptor [2])
O=C(NCC1CCC1)c1cc(Cl)ccc1NC(=O)c1cccc2ccccc12 [Example 17, N-[4-Chloro-2-[[(cyclobutylmethyl)amino]carbonyl]phenyl]-1-naphthalenecarboxamide]	41 nM	95%	7.3 nM
O=C(NC1CCOCC1)c1cc(Cl)ccc1NC(=O)c1cccc2ccccc12 [Example 30, N-[4-Chloro-2-[[(tetrahydro-2H-pyran-4-yl)amino]carbonyl]phenyl]-1-naphthalenecarboxamide]	304 nM	109%	71 nM
O=C(NCC1CCCCC1)c1c(O)cccc1NC(=O)c1cccc2ccccc12 [Example 49, N-[2-[[(Cyclohexylmethyl)amino]carbonyl]-3-hydroxyphenyl]-1-naphthalenecarboxamide]		109%	
